Measured values from patent US6627580B2, “Chelating agents and their manganic chelates” (Akzo Nobel N.V., priority 1997, dated 2003).

What was measured:
[1] = Ahrland et al. 1990, cited from earlier work
[2] = Preference of the new chelant for manganic ions over ferric ions (citrate solutions, pH 7.8); assay type: physicochemical; conditions: for colour developed: pH 7.8
Protocol: In order to show the preference of the new chelants for manganic ions over ferric ions, stable, slightly alkaline solutions of these ions were prepared by chelation with two moies of citric acid. Both solutions were adjusted with sodium hydroxide to a pH of 7.8 at a concentration of 0.001 mmole/ml of manganese and iron, respectively. Three experiments were made for comparison:
a) of each solution 10 ml (0.01 mmole) was mixed, and 0.25 g of the 0.04 molar chelate (or ligand) solution from. Example 1 […] was added.
b) 10 ml of manganic citrate solution was mixed with 0.25 g of the chelate solution.
c) 10 ml of the ferric citrate solution was mixed with 0.25 g of the chelate solution.

[3] = Shaking test with calcium carbonate; assay type: physicochemical
From the text: The test in Example 6 was repeated with the new manganic chelate but with analytical grade calcium carbonate instead of soil. The pH of the suspension was 8.5.

[4] = Soil tests with the new manganic chelate and other manganese sources; assay type: physicochemical
Protocol: A soil sample was taken from a sugar-beet field in Helsingborg, Sweden. It was sifted and homogenised and analysed by a certified agricultural laboratory by so-called ICP after extraction with dilute acetic of EDTA.
35 g portions of the slightly moist soil were transferred to 250 ml glass bottles together with 120 ml of dilute solutions containing about 30 ppm manganese. The solutions to be tested were made from:
The bottles were rotated in a tumbling device at about 1 revolution per second for a period of 19 days. […] The clear liquid samples were analysed by ICP.

[5] = Hydrolytic stability of the new manganic chelate (step-wise alkalisation with dilute sodium hydroxide); assay type: physicochemical
From the text: The manganic chelate solution from Example 2 was alkalised step-wise with dilute sodium hydroxide. Samples were taken at various pH and set aside for later inspection.

[6] = Comparative test with a reduced chelant (manganic chelate of borohydride-reduced chelant); assay type: physicochemical
Protocol: A solution of the chelant according to Example 1 was adjusted to a concentration of 10 mmoles/L and a pH of 5. Sodium borohydride was added at 5 minute intervals until the yellow salicylimine colour disappeared. The pH was then adjusted to 8, and the manganic chelate was generated as described in Example 2 for a final pH of 8.

[7] = Formation and hydrolytic stability of a ferric chelate; assay type: physicochemical; conditions: for Appearance of ferric chelate solution: colour observed during the next 1-2 hours
Protocol: 2 ml of the chelate solution from Example 1 (0.08 mmole) was diluted with 15 ml water and 1 ml of 0.05 molar ferric chloride solution was added dropwise. The pH was brought to 7 with dilute sodium hydroxide, giving a dark wine red solution. The solution was then gradually alkalised by the addition of dilute sodium hydroxide, and the colour was observed during the next 1-2 hours.

[8] = pH stability of manganic and ferric chelates of the tropolone chelant; assay type: physicochemical
Protocol: The manganic chelate of the new chelant was prepared in analogy with Example 2 and formed a brown solution stable at pH 10.
With ferric iron ions the chelant formed a red solution at pH 5. On raising the pH the red colour started to fade at pH 7-8.

[9] = Tropolone chelant with molar equivalents of manganic and ferric ions; assay type: physicochemical; conditions: pH 9
[10] = b) manganic citrate solution only
[11] = c) ferric citrate solution only

Compound: O=C(O)C(NCCNC(C(=O)O)c1ccccc1O)c1ccccc1O (stereo not drawn) [EDDHA, ethylenediamine-di-2-hydroxyphenylacetic acid]
- pKa for hydrolysis of ferric chelate ([1]; ferric chelate): 12.7

Compound: O=C(O)CC(N=Cc1ccccc1O)C(CC(=O)O)N=Cc1ccccc1O (stereo not drawn) [Example 1]
- stability of the yellow colour ([2]; a) manganic citrate + ferric citrate solutions): stable for weeks
- colour developed ([2]; a) manganic citrate + ferric citrate solutions (0.01 mmole each)): yellow ochre colour
- stability of the yellow colour [2, 10]: stable for weeks
- colour developed [2, 10]: yellow ochre colour
- time until solution turned completely red [2, 11]: about one hour
- colour developed [2, 11]: red colour
- selectivity between ferric and manganic ions ([2]; near neutral pH, yellow colour stable for at least several weeks): remarkable preference for manganic ion

Compound: O=C([O-])CC(N=Cc1ccccc1[O-])C(CC(=O)[O-])N=Cc1ccccc1[O-].[Mn+3] (stereo not drawn) [Example 2]
- manganese content in the liquid phase ([3]; calcium carbonate suspension, pH 8.5, remained constant for several weeks): 30 ppm
- colour of liquid phase ([3]; calcium carbonate suspension, pH 8.5, several weeks): remained the same yellow ochre
- solubility in shaking test with calcium carbonate ([3]; for at least several weeks): completely soluble
- hydrolytic stability ([3]; pH 8.5 in the presence of calcium): excellent hydrolytic stability
- soluble manganese retained, of its original content ([4]; after 19 days with soil of low manganese, high iron content): about 50%
- time to visible colour change of centrifuged sample to orange yellow ([4]; soil test): after a week
- pH up to which the manganic chelate forms stable solutions / is stable to hydrolysis ([5]; manganic chelate): at least 10.5
- appearance of manganic chelate solution ([5]; pH 8, after 1 h): clear,
- appearance of manganic chelate solution ([5]; pH 8, after 24 hours): clear, same colour
- appearance of manganic chelate solution ([5]; pH 8, after 5 days): clear,
- appearance of manganic chelate solution ([5]; pH 8, immediately): clear ochre
- appearance of manganic chelate solution ([5]; pH 9, after 1 h): clear,
- appearance of manganic chelate solution ([5]; pH 9, after 24 hours): clear, same colour
- appearance of manganic chelate solution ([5]; pH 9, after 5 days): clear,
- appearance of manganic chelate solution ([5]; pH 9, immediately): clear, same colour
- appearance of manganic chelate solution ([5]; pH 10.5, after 1 h): clear,
- appearance of manganic chelate solution ([5]; pH 10.5, after 24 hours): clear, same colour
- appearance of manganic chelate solution ([5]; pH 10.5, after 5 days): clear,
- appearance of manganic chelate solution ([5]; pH 10.5, immediately): clear, same colour
- appearance of manganic chelate solution ([5]; pH 11, after 1 h): clear,
- appearance of manganic chelate solution ([5]; pH 11, after 24 hours): slight precipitate
- appearance of manganic chelate solution ([5]; pH 11, after 5 days): slight
- appearance of manganic chelate solution ([5]; pH 11, immediately): clear, same colour
- appearance of manganic chelate solution ([5]; pH 11.3, after 1 h): precipitation
- appearance of manganic chelate solution ([5]; pH 11.3, after 24 hours): considerable dark
- appearance of manganic chelate solution ([5]; pH 11.3, after 5 days): as before
- appearance of manganic chelate solution ([5]; pH 11.3, immediately): clear, same colour

Compound: O=C([O-])CC(NCc1ccccc1[O-])C(CC(=O)[O-])NCc1ccccc1[O-].[Mn+3] (stereo not drawn) [Example 4]
- stability to hydrolysis of manganic chelate of reduced chelant [6]: very unstable to hydrolysis
- result on generating the manganic chelate ([6]; final pH of 8): immediate dark precipitate
- manganese dioxide precipitation ([6]; neutral pH): started to precipitate immediately

Compound: O=C([O-])CC(N=Cc1ccccc1[O-])C(CC(=O)[O-])N=Cc1ccccc1[O-].[Fe+3] (stereo not drawn) [Example 5]
- pH at which the ferric chelate starts to hydrolyse [7]: 9
- Appearance of ferric chelate solution ([7]; pH 7): Wine red
- Appearance of ferric chelate solution ([7]; pH 8): Wine red
- Appearance of ferric chelate solution ([7]; pH 9): Slightly lighter wine red
- Appearance of ferric chelate solution ([7]; pH 10): Lighter wine red
- Appearance of ferric chelate solution ([7]; pH 11): Much lighter wine red

Compound: O=C(O)CC(N=c1cccccc1O)C(CC(=O)O)N=c1cccccc1O (stereo not drawn) [Example 9]
- pH at which the red colour started to fade ([8]; ferric chelate, on raising the pH): 7-8
- appearance with ferric iron ions ([8]; ferric chelate, pH 5): red solution
- appearance with ferric iron ions ([8]; ferric chelate, pH 10): turned yellow, with precipitation of the ferric hydroxide
- stability of manganic chelate solution (brown) ([8]; manganic chelate, pH 10): stable
- colour with molar equivalents of both manganic and ferric ions (indicating preference for manganic ions) [9]: stable brown colour

Compound: O=C(O)C(NCCNC(C(=O)O)c1ccccc1O)c1ccccc1O.[Mn+3] (stereo not drawn) [manganic EDDHA, reference compound]
- pKa for hydrolysis of manganic chelate ([1]; manganic chelate): 9.3
- time to colour change of centrifuged sample from brownish to red (manganese replaced by ferric iron) ([4]; soil test): ≤ 1 days
